Key:
Progesterone receptor = molecular target: T1, Progesterone receptor (Homo sapiens, UniProt P06401); experiment: Inhibition of human progesterone receptor
T1 sequence (P06401 whole entry): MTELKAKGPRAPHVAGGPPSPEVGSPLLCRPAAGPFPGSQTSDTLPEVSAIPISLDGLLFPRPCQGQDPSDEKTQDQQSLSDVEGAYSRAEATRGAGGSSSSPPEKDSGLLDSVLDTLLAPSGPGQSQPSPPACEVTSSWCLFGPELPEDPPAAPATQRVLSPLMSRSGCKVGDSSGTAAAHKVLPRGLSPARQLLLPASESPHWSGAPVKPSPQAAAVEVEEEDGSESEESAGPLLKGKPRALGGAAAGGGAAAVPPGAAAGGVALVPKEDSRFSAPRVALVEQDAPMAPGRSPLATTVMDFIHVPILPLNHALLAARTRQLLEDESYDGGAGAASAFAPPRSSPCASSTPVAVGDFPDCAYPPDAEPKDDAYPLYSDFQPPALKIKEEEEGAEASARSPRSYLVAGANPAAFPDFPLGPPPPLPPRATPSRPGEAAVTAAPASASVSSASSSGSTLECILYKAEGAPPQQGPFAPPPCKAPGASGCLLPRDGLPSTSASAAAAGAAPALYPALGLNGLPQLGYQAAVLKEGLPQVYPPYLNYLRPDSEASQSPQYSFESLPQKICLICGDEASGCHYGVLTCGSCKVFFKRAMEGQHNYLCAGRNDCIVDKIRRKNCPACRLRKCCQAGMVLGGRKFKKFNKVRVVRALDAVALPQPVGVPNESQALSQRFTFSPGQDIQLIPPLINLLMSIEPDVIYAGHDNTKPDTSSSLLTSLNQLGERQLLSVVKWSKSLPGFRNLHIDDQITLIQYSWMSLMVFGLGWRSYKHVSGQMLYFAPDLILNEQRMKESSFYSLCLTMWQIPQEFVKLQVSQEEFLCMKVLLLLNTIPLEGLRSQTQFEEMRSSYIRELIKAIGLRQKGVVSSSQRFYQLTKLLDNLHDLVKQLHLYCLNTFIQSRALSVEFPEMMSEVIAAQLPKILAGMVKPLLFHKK

[1] = Inhibitory activity against rat lymphocytes; parameters: concentration or dose not given beside the values
[2] = molecular target: Glucocorticoid receptor (Rattus norvegicus) (UniProt P06536); experiment: Inhibition of glucocorticoid receptor mediated tyrosine aminotransferase activity; parameters: concentration or dose not given beside the values; conditions: concentration not given here
[3] = Inhibitory activity of the Compound against rat lymphocytes

Sequence of Glucocorticoid receptor (Rattus norvegicus) (P06536 whole entry, looked up): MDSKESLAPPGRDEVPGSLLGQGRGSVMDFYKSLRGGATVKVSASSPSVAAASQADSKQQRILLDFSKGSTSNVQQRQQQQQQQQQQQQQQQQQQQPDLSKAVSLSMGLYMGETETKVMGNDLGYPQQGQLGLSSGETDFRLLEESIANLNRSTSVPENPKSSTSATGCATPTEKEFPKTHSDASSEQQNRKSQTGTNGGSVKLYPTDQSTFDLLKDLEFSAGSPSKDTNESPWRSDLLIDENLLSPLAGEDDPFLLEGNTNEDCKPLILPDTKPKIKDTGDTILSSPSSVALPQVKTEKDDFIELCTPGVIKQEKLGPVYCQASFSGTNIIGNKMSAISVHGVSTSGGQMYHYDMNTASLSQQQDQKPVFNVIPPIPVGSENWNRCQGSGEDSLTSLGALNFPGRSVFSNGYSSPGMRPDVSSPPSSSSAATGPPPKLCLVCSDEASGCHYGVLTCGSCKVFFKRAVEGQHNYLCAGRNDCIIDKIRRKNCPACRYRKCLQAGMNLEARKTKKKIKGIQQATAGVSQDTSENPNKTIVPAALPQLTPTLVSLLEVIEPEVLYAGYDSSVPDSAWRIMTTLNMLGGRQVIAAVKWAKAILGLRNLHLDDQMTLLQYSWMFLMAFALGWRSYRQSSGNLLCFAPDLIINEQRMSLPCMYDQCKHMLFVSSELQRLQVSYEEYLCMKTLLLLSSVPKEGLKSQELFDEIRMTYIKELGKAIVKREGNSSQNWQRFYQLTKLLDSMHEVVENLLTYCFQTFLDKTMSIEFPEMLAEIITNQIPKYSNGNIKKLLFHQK

| SMILES | Ki (Progesterone receptor) | Inhibition [1] | inhibition [2] | Inhibition [3] |
| --- | --- | --- | --- | --- |
| C#C[C@]1(O)CC[C@H]2[C@@H]3CCC4=CC(=O)CCC4=C3[C@@H](c3ccc(N(C)CCOC4CC[C@@]5(C)[C@@H](C4)C[C@@H](O)[C@@H]4[C@@H]5C[C@H](O)[C@]5(C)[C@@H]([C@H](C)CCC(=O)O)CC[C@@H]45)cc3)C[C@@]21C (stereo in doubt; form 2) | 0.81 nM | 9% |  |  |
| C#C[C@]1(O)CC[C@H]2[C@@H]3CCC4=CC(=O)CCC4=C3[C@@H](c3ccc(N(C)CCOCCO[C@H]4CC[C@@]5(C)[C@@H](C4)C[C@@H](O)[C@@H]4[C@@H]5C[C@H](O)[C@]5(C)[C@@H]([C@H](C)CCC(=O)O)CC[C@@H]45)cc3)C[C@@]21C | 0.48 nM | 43% | 60% |  |
| C#C[C@]1(O)CC[C@H]2[C@@H]3CCC4=CC(=O)CCC4=C3[C@@H](c3ccc(N(C)C(=O)CNC(=O)OC4CC[C@@]5(C)[C@@H](C4)C[C@@H](O)[C@@H]4[C@@H]5C[C@H](O)[C@]5(C)[C@@H]([C@H](C)CCC(=O)O)CC[C@@H]45)cc3)C[C@@]21C (stereo not given in full) | 2.4 nM |  |  |  |
| C#C[C@]1(O)CC[C@H]2[C@@H]3CCC4=CC(=O)CCC4=C3[C@@H](c3ccc(N(C)CCCC(=O)N(C)C4CC[C@@]5(C)[C@@H](C4)C[C@@H](O)[C@@H]4[C@@H]5C[C@H](O)[C@]5(C)[C@@H]([C@H](C)CCC(=O)O)CC[C@@H]45)cc3)C[C@@]21C (stereo not given in full) | 0.96 nM | 4% | 11% |  |
| C#C[C@]1(O)CC[C@H]2[C@@H]3CCC4=CC(=O)CCC4=C3[C@@H](c3ccc(N(C)CCOC4CC[C@@]5(C)[C@@H](C4)C[C@@H](O)[C@@H]4[C@@H]5C[C@H](O)[C@]5(C)[C@@H]([C@H](C)CCC(=O)NCC(=O)O)CC[C@@H]45)cc3)C[C@@]21C (stereo not given in full) | 1 nM |  |  |  |
| C#C[C@]1(O)CC[C@H]2[C@@H]3CCC4=CC(=O)CCC4=C3[C@@H](c3ccc(N(C)CCC[C@H]4[C@H](O)CC[C@@]5(C)[C@@H]4C[C@@H](O)[C@@H]4[C@@H]5C[C@H](O)[C@]5(C)[C@@H]([C@H](C)CCC(=O)O)CC[C@@H]45)cc3)C[C@@]21C | 2.1 nM |  |  |  |
| C#C[C@]1(O)CC[C@H]2[C@@H]3CCC4=CC(=O)CCC4=C3[C@@H](c3ccc(N(C)CCOC4CC[C@@]5(C)[C@@H](C4)C[C@@H](O)[C@@H]4[C@@H]5C[C@H](O)[C@]5(C)[C@@H]([C@H](C)CCC(=O)NCCS(=O)(=O)O)CC[C@@H]45)cc3)C[C@@]21C (stereo not given in full) | 0.53 nM |  |  |  |
| C#C[C@]1(O)CC[C@H]2[C@@H]3CCC4=CC(=O)CCC4=C3[C@@H](c3ccc(N(C)CCOC4CC[C@@]5(C)[C@@H](C4)C[C@@H](O)[C@@H]4[C@@H]5C[C@H](O)[C@]5(C)[C@@H]([C@H](C)CCC(=O)O)CC[C@@H]45)cc3)C[C@@]21C (stereo in doubt; form 1) | 3.3 nM | -14% |  |  |
| C#C[C@]1(O)CC[C@H]2[C@@H]3CCC4=CC(=O)CCC4=C3[C@@H](c3ccc(N(C)C(=O)CNC(=O)O[C@@H]4C[C@@H]5CC(O)CC[C@]5(C)[C@H]5C[C@H](O)[C@]6(C)[C@@H]([C@H](C)CCC(=O)O)CC[C@H]6[C@H]45)cc3)C[C@@]21C (stereo not given in full) | 4.4 nM |  |  |  |
| C#C[C@]1(O)CC[C@H]2[C@@H]3CCC4=CC(=O)CCC4=C3[C@@H](c3ccc(N(C)CCNC(=O)OC4CC[C@@]5(C)[C@@H](C4)C[C@@H](O)[C@@H]4[C@@H]5C[C@H](O)[C@]5(C)[C@@H]([C@H](C)CCC(=O)O)CC[C@@H]45)cc3)C[C@@]21C (stereo not given in full) | 0.39 nM |  |  | 14% |
| C#C[C@]1(O)CC[C@H]2[C@@H]3CCC4=CC(=O)CCC4=C3[C@@H](c3ccc(N(C)CCCS(=O)(=O)N(C)C4CC[C@@]5(C)[C@@H](C4)C[C@@H](O)[C@@H]4[C@@H]5C[C@H](O)[C@]5(C)[C@@H]([C@H](C)CCC(=O)O)CC[C@@H]45)cc3)C[C@@]21C (stereo not given in full) | 1.9 nM | 9% |  |  |
| C#C[C@]1(O)CC[C@H]2[C@@H]3CCC4=CC(=O)CCC4=C3[C@@H](c3ccc(N(C)C(C)=O)cc3)C[C@@]21C | 6.4 nM |  |  |  |
| C#C[C@]1(O)CC[C@H]2[C@@H]3CCC4=CC(=O)CCC4=C3[C@@H](c3ccc(N(C)CCCOC4CC[C@@]5(C)[C@@H](C4)C[C@@H](O)[C@@H]4[C@@H]5C[C@H](O)[C@]5(C)[C@@H]([C@H](C)CCC(=O)O)CC[C@@H]45)cc3)C[C@@]21C (stereo not given in full) | 1.1 nM | -5% | 64% |  |
| C#C[C@]1(O)CC[C@H]2[C@@H]3CCC4=CC(=O)CCC4=C3[C@@H](c3ccc(N(C)C(=O)CC[C@H](NC(=O)CC[C@@H](C)[C@H]4CC[C@H]5[C@@H]6[C@H](O)C[C@@H]7C[C@H](O)CC[C@]7(C)[C@H]6C[C@H](O)[C@]45C)C(=O)O)cc3)C[C@@]21C | 1.2 nM |  |  |  |
| C#C[C@]1(O)CC[C@H]2[C@@H]3CCC4=CC(=O)CCC4=C3[C@@H](c3ccc(N(C)CCNC(=O)N(C)C4CC[C@@]5(C)[C@@H](C4)C[C@@H](O)[C@@H]4[C@@H]5C[C@H](O)[C@]5(C)[C@@H]([C@H](C)CCC(=O)O)CC[C@@H]45)cc3)C[C@@]21C (stereo not given in full) | 3.5 nM |  |  |  |
